Measurements reported in the NIST ThermoML archive (doi:10.1021/je060271a).

Details: Liquid, Vibrating tube method

CCCCCC(=O)OCC(COC(=O)CCCCC)(COC(=O)CCCCC)COC(=O)CCCCC [pentaerythritol tetrahexanoate]
Details | mass density [kg/m3]
303.17 K, 1567.2 kPa | 989.3
303.17 K, 1583.5 kPa | 989.4
303.17 K, 1597.3 kPa | 989.4
303.17 K, 1611.3 kPa | 989.4
303.17 K, 1628.3 kPa | 989.5
303.17 K, 5535.7 kPa | 992
303.17 K, 5553.1 kPa | 991.9
303.17 K, 5573.9 kPa | 992
303.17 K, 17353 kPa | 999.2
303.17 K, 32996 kPa | 1008
303.17 K, 33019 kPa | 1007.9
303.17 K, 33039 kPa | 1007.9
303.17 K, 33058 kPa | 1008
303.17 K, 33082 kPa | 1008.1
303.17 K, 33102 kPa | 1007.9
303.17 K, 33125 kPa | 1008
303.17 K, 33145 kPa | 1008
303.17 K, 33165 kPa | 1007.9
323.14 K, 384.5 kPa | 973
323.14 K, 386.4 kPa | 972.9
323.14 K, 388.7 kPa | 972.8
323.14 K, 391.1 kPa | 972.8
323.14 K, 393.7 kPa | 972.9
323.14 K, 396.7 kPa | 972.9
323.14 K, 398.7 kPa | 973
323.14 K, 401.3 kPa | 973
323.14 K, 403.6 kPa | 972.9
323.14 K, 406.6 kPa | 972.9
323.14 K, 408.8 kPa | 972.9
323.14 K, 411.4 kPa | 973
323.14 K, 414.9 kPa | 972.9
323.14 K, 417.5 kPa | 972.8
323.14 K, 420.5 kPa | 972.9
323.14 K, 423.2 kPa | 973
323.14 K, 426 kPa | 972.9
323.14 K, 429.2 kPa | 972.9
323.14 K, 431.6 kPa | 972.9
323.14 K, 434.7 kPa | 973.1
323.14 K, 438 kPa | 972.9
323.14 K, 440.8 kPa | 972.9
323.14 K, 477.3 kPa | 972.9
323.14 K, 481.1 kPa | 973
323.14 K, 484.4 kPa | 972.9
323.14 K, 488.9 kPa | 972.9
323.14 K, 492.6 kPa | 973
323.14 K, 495.7 kPa | 973
323.14 K, 499.5 kPa | 973
323.14 K, 503.9 kPa | 973
323.14 K, 507.5 kPa | 973.1
323.14 K, 512.4 kPa | 973.1
323.14 K, 516.2 kPa | 973
323.14 K, 645.8 kPa | 973.2
323.14 K, 648.1 kPa | 973.1
323.14 K, 650 kPa | 973
323.14 K, 652.6 kPa | 973.1
323.14 K, 654.5 kPa | 973.1
323.14 K, 657.1 kPa | 972.9
323.14 K, 686.8 kPa | 973.3
323.14 K, 689.8 kPa | 973
323.14 K, 692.2 kPa | 973.1
323.14 K, 694.8 kPa | 973.3
323.14 K, 697.1 kPa | 973.2
323.14 K, 763.3 kPa | 973.2
323.14 K, 801.5 kPa | 973.1
323.14 K, 803.8 kPa | 973.2
323.14 K, 807.1 kPa | 973.2
323.14 K, 809.5 kPa | 973.2
323.14 K, 812.1 kPa | 973.3
323.14 K, 858.7 kPa | 973.2
323.14 K, 862.3 kPa | 973.3
323.14 K, 865.1 kPa | 973.2
323.14 K, 867.7 kPa | 973.2
323.14 K, 916.7 kPa | 973.3
323.14 K, 923.3 kPa | 973.2
323.14 K, 1440.1 kPa | 973.7
323.14 K, 1446.1 kPa | 973.7
323.14 K, 1451.7 kPa | 973.5
323.14 K, 1458.6 kPa | 973.7
323.14 K, 1465.1 kPa | 973.6
323.14 K, 1499.4 kPa | 973.7
323.14 K, 2143.7 kPa | 974.1
323.14 K, 2154.2 kPa | 974.2
323.14 K, 2163.4 kPa | 974.2
323.14 K, 2899 kPa | 974.7
323.14 K, 2935.4 kPa | 974.6
323.14 K, 2971.1 kPa | 974.8
323.14 K, 2984.1 kPa | 974.9
323.14 K, 2995.2 kPa | 974.8
323.14 K, 3008.5 kPa | 974.8
323.14 K, 3019.8 kPa | 974.7
323.14 K, 3032.8 kPa | 974.8
323.14 K, 3043.7 kPa | 974.8
323.14 K, 3057.4 kPa | 974.8
323.14 K, 3071.1 kPa | 974.7
323.14 K, 3082.4 kPa | 974.9
323.14 K, 3093.6 kPa | 974.9
323.14 K, 3107.5 kPa | 974.7
323.14 K, 3120.8 kPa | 974.9
323.14 K, 3132.5 kPa | 975
323.14 K, 3143.7 kPa | 975
323.14 K, 3157.8 kPa | 974.8
323.14 K, 3169 kPa | 974.9
323.14 K, 3182.6 kPa | 974.9
323.14 K, 3194.3 kPa | 974.9
323.14 K, 3207.9 kPa | 974.9
323.14 K, 3219.3 kPa | 975.1
323.14 K, 3233.3 kPa | 974.9
323.14 K, 3245.1 kPa | 974.9
323.14 K, 3259.7 kPa | 974.9
323.14 K, 3271.8 kPa | 975
323.14 K, 3285.5 kPa | 975
323.14 K, 3298 kPa | 974.9
323.14 K, 3312.4 kPa | 975
323.14 K, 3324.7 kPa | 975.1
323.14 K, 3339.9 kPa | 975.1
323.14 K, 3353.1 kPa | 975
323.14 K, 3384.1 kPa | 975
323.14 K, 3463.3 kPa | 975.1
323.14 K, 3495.4 kPa | 975.1
323.14 K, 4052.6 kPa | 975.6
323.14 K, 4071.6 kPa | 975.6
323.14 K, 4087 kPa | 975.6
323.14 K, 4103.5 kPa | 975.6
323.14 K, 4122.2 kPa | 975.5
323.14 K, 4176.9 kPa | 975.4
323.14 K, 4193.2 kPa | 975.6
323.14 K, 4530.6 kPa | 975.9
323.14 K, 4548.8 kPa | 975.8
323.14 K, 4570.3 kPa | 975.9
323.14 K, 4588.6 kPa | 975.9
323.14 K, 4610.6 kPa | 976
323.14 K, 4632.6 kPa | 975.9
323.14 K, 4650.7 kPa | 976
323.14 K, 4669.3 kPa | 975.9
323.14 K, 4691.8 kPa | 975.9
323.14 K, 4714.6 kPa | 975.9
323.14 K, 4733.6 kPa | 976
323.14 K, 4753.2 kPa | 975.9
323.14 K, 4776.2 kPa | 975.9
323.14 K, 4795.8 kPa | 976.1
323.14 K, 4819.1 kPa | 975.9
323.14 K, 4838.9 kPa | 976.1
323.14 K, 4862.6 kPa | 976.2
323.14 K, 4886.4 kPa | 976.1
